Source: ChEMBL document CHEMBL3994660, “Novel 5-arylthio-5H-chromenopyridines as a new class of anti-fibrotic agents” (Bioorg Med Chem Lett, 2017)
Calls of active or inactive are those of the source. The rule behind the calls is not given here.

Key:
[1] = Cytotoxicity against human LX2 cells assessed as reduction in cell viability at 5 to 25 uM after 6 hrs by CellTiter-Glo luminescent assay; format: cell-based; settings: lx2, 6 h
Hepatitis C virus [2] = experiment: Inhibition of HCV NS3 protein expression infected in human Huh7.5 cells at 5 uM after 6 hrs by Western blot method relative to control; format: functional, Hepacivirus hominis; settings: Huh7.5, 6 h
Hepatitis C virus [3] = experiment: Inhibition of HCV NS3 protein expression infected in human Huh7.5 cells at 10 uM after 6 hrs by Western blot method relative to control; format: functional, Hepacivirus hominis; settings: Huh7.5, 6 h
Hepatitis C virus [4] = experiment: Inhibition of HCV NS3 protein expression infected in human Huh7.5 cells at 25 uM after 6 hrs by Western blot method relative to control; format: functional, Hepacivirus hominis; settings: Huh7.5, 6 h
Hepatitis C virus [5] = experiment: Inhibition of HCV NS5A protein expression infected in human Huh7.5 cells at 5 to 25 uM after 6 hrs by Western blot method; format: functional, cell-based; settings: Hepacivirus hominis
[6] = Cytotoxicity against human Huh7.5 cells infected with HCV assessed as reduction in cell viability at 5 to 25 uM after 6 hrs by CellTiter-Glo luminescent assay; format: cell-based; settings: huh7.5, 6 h
LX2 [7] = experiment: Antifibrotic activity against human LX2 cells assessed as inhibition of spindle shaped cells by measuring round shaped cells at 10 uM after 6 hrs by light microscopic method; format: functional, cell-based
LX2 [8] = experiment: Antifibrotic activity against human LX2 cells assessed as inhibition of spindle shaped cells by measuring round shaped cells at 25 uM after 6 hrs by light microscopic method; format: functional, cell-based

| SMILES | Activity [1] | inhibition at 5 µM (Hepatitis C virus [2]) [%] | inhibition at 10 µM (Hepatitis C virus [3]) [%] | inhibition at 25 µM (Hepatitis C virus [4]) [%] | inhibition (Hepatitis C virus [5]) | Activity [6] | inhibition (LX2 [7]) | inhibition (LX2 [8]) |
| --- | --- | --- | --- | --- | --- | --- | --- | --- |
| CCN(CC)c1ccc2c(c1)Oc1nc(N)c(C#N)c(N)c1C2Sc1ccc(Cl)cc1 (stereo unspecified) | Toxic | 42 | 34 | 47 | inactive | Non-Toxic | – | – |
| CCN(CC)c1ccc2c(c1)Oc1nc(N)c(C#N)c(N)c1C2Sc1ccc(C)cc1 (stereo unspecified) | – | – | – | – | inactive | Non-Toxic | – | – |
| CCN(CC)c1ccc2c(c1)Oc1nc(N)c(C#N)c(N)c1C2Sc1ccc(Br)cc1 (stereo unspecified) | Non-Toxic | 59 | 49 | 32 | inactive | Non-Toxic | Active | – |
| CCN(CC)c1ccc2c(c1)Oc1nc(N)c(C#N)c(N)c1C2Sc1ccc(SC)cc1 (stereo unspecified) | – | 29 | 35 | 45 | inactive | Non-Toxic | – | Active |
| CCN(CC)c1ccc2c(c1)Oc1nc(N)c(C#N)c(N)c1C2Sc1ccc(OC)cc1 (stereo unspecified) | Toxic | 47 | 27 | 28 | inactive | Non-Toxic | – | – |
| CCc1ccc(SC2c3ccc(N(CC)CC)cc3Oc3nc(N)c(C#N)c(N)c32)cc1 (stereo unspecified) | Non-Toxic | 47 | 0 | 19 | inactive | Non-Toxic | – | Active |
| CCN(CC)c1ccc2c(c1)Oc1nc(N)c(C#N)c(N)c1C2Sc1ccc(F)cc1 (stereo unspecified) | Non-Toxic | 33 | 3 | 0 | inactive | Non-Toxic | Active | – |
